Where two headings read alike, the source gives them in different places. Positions of bridges follow the written chain, without caps; N, C: chain ends. Non-standard residues stand in square brackets, D forms with d. Residues, ends and D or L forms follow the SMILES beside them. 2Nal = N[C@@H](Cc1ccc2ccccc2c1)C(=O)O; Lys(iPr) = CC(C)NCCCC[C@H](N)C(=O)O; hTyr = N[C@@H](CCc1ccc(O)cc1)C(=O)O

The target of assay [1] is T1, CXCR4 (Homo sapiens, UniProt P61073).
T1 construct: expressed in transfected cells; host or cells: CHO:CXCR4 cells (gift from Drs. David McDermott and Xiaoyuan Chen, NIH)
T1 sequence (P61073 whole entry): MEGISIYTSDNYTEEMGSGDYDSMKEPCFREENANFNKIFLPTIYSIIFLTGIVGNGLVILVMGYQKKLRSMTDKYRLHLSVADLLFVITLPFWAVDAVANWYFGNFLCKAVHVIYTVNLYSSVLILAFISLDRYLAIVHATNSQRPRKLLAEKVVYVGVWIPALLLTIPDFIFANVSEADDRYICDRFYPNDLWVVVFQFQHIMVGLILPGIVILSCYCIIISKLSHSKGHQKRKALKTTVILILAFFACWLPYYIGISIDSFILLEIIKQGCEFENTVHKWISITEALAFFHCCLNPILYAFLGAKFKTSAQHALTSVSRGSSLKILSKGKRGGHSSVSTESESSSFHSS
Nature of the assay: Competitive binding assay: [125I]SDF-1α displacement on CHO:CXCR4 cells. Particulars: [125I]SDF-1α competition on CHO:CXCR4 cells; given as ranges; read-out: IC50 (nM), Binding Affinity to CXCR4. As for the experimental part: The Z138 mantle cell lymphoma cell line was given by Dr. Christian Steidl (BC Cancer) as a gift. The CHO:CXCR4 cell line was given by Drs. David McDermott and Xiaoyuan Chen (National Institutes of Health) as a gift. The cell line was cultured in a 5% CO2 atmosphere at 37° C. in a humidified incubator. The Z138 cells were incubated with IMDM medium (Life Technologies Corporations) and the CHO:CXCR4 cells were incubated with F12K medium (Life Technologies Corporations), both of which were supplemented with 10% fetal bovine serum (Sigma-Aldrich), 100 I.U./mL penicillin, and 100 μg/mL streptomycin (Penicillin-Streptomycin Solution).
CHO:CXCR4 cells were seeded at a density of 1×10^5 cells/well in 24-well poly-D-lysine coated plates (Corning BioCoat) and incubated with [^1251]SDF-1α (0.01 nM, PerkinElmer) and competing nonradioactive ligands ([…]). The cells, radioligand, and competing peptides were incubated for 1 h at 27° C. with moderate shaking. Following the incubation period, the supernatant was aspirated, followed by three washes with 1 mL of ice-cold PBS. Cells were harvested with 200 μL of trypsin and counted on a y counter. Data were plotted in GraphPad Prism 7 to determine IC50 values (GraphPad Software, Inc., La Jolla, CA). The values are reported as mean±standard deviation.

The next assay deals with small cell lung cancer. Particulars: small cell lung cancer patients; cited from earlier work.
For assay [2], the target named is T1, CXCR4. Particulars: read-out: IC50, block of SDF-1α binding to CXCR4; cited from earlier work.
For assay [3], the system named is non-Hodgkin lymphoma, renal cell carcinoma, lung cancer, colorectal cancer, and breast cancer xenograft models. Particulars: colorectal and breast cancer xenografts; cited from earlier work.

As to `CC(=O)NCCCC[C@@H]1NC(=O)CC[C@H](C(=O)N[C@@H](CCCCNC(C)C)C(N)=O)NC(=O)[C@@H](C)NC(=O)[C@H](Cc2ccc3ccccc3c2)NC(=O)[C@@H](CCCNC(=N)N)NC(=O)[C@H](CCCCNC(C)C)NC(=O)[C@H](CCC(N)=O)NC1=O` [cyclo[Lys(Ac)-Gln-Lys(iPr)-D-Arg-2Nal-D-Ala-D-Glu]-Lys(iPr)] (K(Ac)Q[Lys(iPr)][dR][2Nal][dA][dE][Lys(iPr)]-NH2; lactam N-7), the IC50 at CXCR4 [1] is 10 to 50 nM.

On to `CC(=O)NCCCC[C@@H]1NC(=O)CC[C@H](C(=O)N[C@@H](CCCCNC(C)C)C(N)=O)NC(=O)[C@@H](C)NC(=O)[C@H](Cc2ccc3ccccc3c2)NC(=O)[C@@H](CCCNC(=N)N)NC(=O)[C@H](CCCCNC(C)C)NC(=O)[C@H](CCC(=O)O)NC1=O` [cyclo[Lys(Ac)-Glu-Lys(iPr)-D-Arg-2Nal-D-Ala-D-Glu]-Lys(iPr)] (K(Ac)E[Lys(iPr)][dR][2Nal][dA][dE][Lys(iPr)]-NH2; lactam N-7), for which the 50% inhibitory concentration (IC50) on CXCR4 [1] lay within 50 to 100 nM.

Consider `CC(=O)NCCCC[C@@H]1NC(=O)CC[C@H](C(=O)N[C@@H](CCCCNC(C)C)C(N)=O)NC(=O)CNC(=O)[C@H](Cc2ccc3ccccc3c2)NC(=O)[C@@H](CCCNC(=N)N)NC(=O)[C@H](CCCCNC(C)C)NC(=O)[C@H](Cc2ccc(O)cc2)NC1=O` [cyclo[Lys(Ac)-Tyr-Lys(iPr)-D-Arg-2Nal-Gly-D-Glu]-Lys(iPr)] (K(Ac)Y[Lys(iPr)][dR][2Nal]G[dE][Lys(iPr)]-NH2; lactam N-7), for which the 50% inhibitory concentration (IC50) at CXCR4 [1] fell in the range of 1 to 10 nM.

Turning to `CC(C)NCCCC[C@H](NC(=O)[C@H]1CCC(=O)N[C@@H](Cc2ccccc2)C(=O)N[C@H](Cc2ccc(O)cc2)C(=O)N[C@@H](CCCCNC(C)C)C(=O)N[C@H](CCCNC(=N)N)C(=O)N[C@@H](Cc2ccc3ccccc3c2)C(=O)N[C@H](C)C(=O)N1)C(N)=O` [cyclo[Phe-D-Tyr-Lys(iPr)-DArg-2Nal-D-Ala-D-Glu]-Lys(iPr)] (F[dY][Lys(iPr)][dR][2Nal][dA][dE][Lys(iPr)]-NH2; lactam N-7), the IC50 on CXCR4 [1] is 50 to 100 nM.

Consider `CC(C)C[C@H]1NC(=O)[C@H](Cc2ccc3ccccc3c2)NC(=O)[C@@H](CCCNC(=N)N)NC(=O)[C@H](CCCCNC(C)C)NC(=O)[C@H](Cc2ccc(O)cc2)NC(=O)[C@H](Cc2ccccc2)NC(=O)CC[C@H](C(=O)N[C@@H](CCCCNC(C)C)C(N)=O)NC1=O` [cyclo[Phe-Tyr-Lys(iPr)-D-Arg-2Nal-D-Leu-D-Glu]-Lys(iPr)] (FY[Lys(iPr)][dR][2Nal][dL][dE][Lys(iPr)]-NH2; lactam N-7), for which the 50% inhibitory concentration (IC50) at CXCR4 [1] was 50 to 100 nM.

Take `CC(C)NCCCC[C@H](NC(=O)[C@H]1CCC(=O)N[C@@H](Cc2ccccc2)C(=O)N[C@@H](CCc2ccc(O)cc2)C(=O)N[C@@H](CCCCNC(C)C)C(=O)N[C@H](CCCNC(=N)N)C(=O)N[C@@H](Cc2ccc3ccccc3c2)C(=O)N[C@H](C)C(=O)N1)C(N)=O` [cyclo[Phe-hTyr-Lys(iPr)-D-Arg-2-Nal-D-Ala-D-Glu]-Lys(iPr)] (F[hTyr][Lys(iPr)][dR][2Nal][dA][dE][Lys(iPr)]-NH2; lactam N-7): the IC50 on CXCR4 [1] is 50 to 100 nM.

With “cyclo[Phe-Tyr-Lys(iPr)-D-Arg-2-Nal-Gly-D-Glu]-Lys(iPr)-NH2 [LY2510924]”, the “treatment efficacy of carboplatin/etoposide chemotherapy” value with small cell lung cancer is on record as “failed to improve treatment efficacy”. Also, at CXCR4 [2], the IC50 is 0.079 nM. Also, the “growth of xenograft models” value in assay [3] is “able to inhibit growth”.

Source of the values: patent US12616761B2, “CXCR4-targeting compounds” (PROVINCIAL HEALTH SERVICES AUTHORITY, priority 2020, dated 2026).
